Reference: US9493466B2, “Treatment of cancer with TOR kinase inhibitors” (Signal Pharmaceuticals, LLC, priority 2011, dated 2016)

What was measured:
[1] = system: HCT-116 tumors; test: HCT-116 human colorectal cancer xenograft model; format: in vivo, SCID mice
Protocol: HCT-116 Human Colorectal Cancer Xenograft Model. The HCT-116 cell line was obtained from American Tissue Culture Collection (ATCC) (Gaithersberg, Md.) and grown in growth medium containing McCoy's 5A medium with 2 mM L-glutamine adjusted to contain 90% and 10% of fetal bovine serum. The cells were detached from tissue culture flasks using trypsin-EDTA. After centrifugation, the cell pellets were suspended in phosphate buffered saline (PBS) and counted using a hemocytometer. Matrigel was added to the cell suspension to adjust the final volume to 2×10^6 cells/0.1 mL of 1:1 mixture of Matrigel: PBS.
Female 6-8 weeks old CB17 SCID mice were obtained from Charles River Laboratories at a body weight of 17-20 g. Mice were anesthetized with inhaled isoflurane and then inoculated with HCT-116 tumor cells subcutaneously on the right hind leg with 0.1 mL of a single cell suspension using a sterile 1 mL syringe fitted with a 26 gauge needle. Following inoculation, the mice were returned to microisolator cages. The tumors were allowed to grow to about 100 mm^3 prior to randomization. The typical number of days required for tumors to reach 100 mm^3 was 7 to 8 days. The tumor of each animal was measured and animals with tumors ranging between 100 and 150 mm^3 were included in the study. The animals were distributed randomly into various cages and the cages were randomly assigned to vehicle, positive control, or test article groups. All of the mice were tagged with metal ear tags on the right ear. A typical group consisted of 8 to 10 animals.
Compound 1 was formulated in 0.5% CMC and 0.25% Tween 80 in water (as a suspension). The formulations were homogenized using a Teflon pestle and mortar (Potter-Elvehjem tissue grinder). Between the doses, the formulated compound was stored under constant stirring using a magnetic stirrer at 4° C. in the dark. The test article and vehicle were administered by oral gavage. The positive control (rapamycin) was prepared as solution in 2% ethanol, 45% polyethyleneglycol 400, and 53% saline and administered by IP injection. Vehicle and the test article were dosed in a volume of 5 mL/kg. The positive control rapamycin was dosed in a volume of 10 mL/kg. Sterile syringes and gavage needles were used for compound administration. All the procedures including injections were done in biosafety cabinets sprayed with ethanol prior to use.
Groups of female SCID mice bearing HCT-116 tumors (n=9-10/group) were dosed orally with vehicle or Compound 1 (1 mg/kg to 50 mg/kg) twice daily (BID), once daily (QD), every second day (Q2D), every third day (Q3D) or every 5th day (Q5D) throughout the study starting when the tumor volumes reached approximately 100 mm^3. The BID dose groups were dosed with a 10 h separation between the morning and evening doses. In the positive control group, rapamycin (n=6/group) was administered via the intraperitoneal (IP) route Q3D. At the end of each study, plasma and/or tumor samples were collected.
Tumor volumes were determined prior to the initiation of treatment and were considered as the starting volumes. Thereafter, tumors were measured twice a week for the duration of the study. The long and short axes of each tumor were measured using a digital caliper in millimeters. The tumor volumes were calculated using the formula: width^2×length/2 (using long [L] and short [W] axes of tumors). The tumor volumes were expressed in cubic millimeters (mm^3). Tumor volume data are expressed as mean±SE. The difference in tumor volume between vehicle and treatment group was expressed in percent volume reduction=100−tumor volume of treated/tumor volume of control×100. Statistical analysis was done using Graphpad Prism. Comparison between multiple groups was done using one-way ANOVA with Newman-Keuls post-test with a 95% significance level.
Initial body weights were recorded prior to the initiation of treatment using a digital scale. […]

[2] = system: advanced solid tumors, non-Hodgkin lymphoma or multiple myeloma; test: Phase 1/2 study Part A: tumor response; format: in vivo, human
Source text: Subjects will be evaluated for efficacy every 2 cycles through cycle 6 and every 3 cycles thereafter. The primary efficacy variable is response. Tumor assessments, including imaging (CT, MRI and/or PET) of the chest and abdomen and other sites as appropriate, will be performed during Screening. Subjects with brain lesions will also have brain scans at Screening and during follow-up tumor assessments. After Screening, tumor assessments (for all tumors except multiple myeloma) will be performed on completion of Cycles 2, 4 and 6 (i.e., on Cycles 3, 5 and 7/Day 1±7 days) and then every 3 months thereafter (e.g., Cycle 10 and 13/Day 1±7 days). Tumor assessment (for multiple myeloma and only NHL/DLBCL with known or suspected marrow involvement) (bone marrow aspiration and biopsy, with PD biomarker analysis, cytogenetic analysis if abnormally present at Screening) will be performed on completion of Cycles 4, 8, 12 and 16 only (i.e., on Cycles 5, 9, 13 and 17/Day 1±7 days). Cytogenetics need not be repeated if normal at Screening. Tumor response will be based on Response Evaluation Criteria in Solid Tumors (RECIST 1.1), International Workshop Criteria (IWC) for NHL/DLBCL or International Uniform Response Criteria (IURC) for Multiple Myeloma, and RANO for GBM, using the post resection MRI scan as the baseline. Given the difficulty in assessing tumor response following salvage surgery, the primary efficacy endpoint for GBM will be the proportion of subjects progression-free at 6 months from Day 1 relative to efficacy evaluable subjects in the GBM type. Subjects will be evaluated for tumor response on completion of Cycle 2, 4, 6, and so on. A descriptive analysis of evidence of anti-tumor activity will be provided based on clinical and radiographic assessments by the investigator, which includes assessment of target lesion, non-target lesion, new lesion and overall response.
The efficacy variable of focus for Part A will be best overall response. Other preliminary efficacy variables will be summarized using frequency tabulations for categorical variables or descriptive statistics for continuous variables.
Part A: Accelerated Dose Escalation Results.

[3] = system: GBM; test: Phase 1/2 study Part B: tumor response, GBM; format: in vivo, human; conditions: 10 evaluable GBM patients
Source text: In Part B, subjects may start Compound 1 at the MTD and/or a lower dose level based on safety, PK and PD data from Part A. Approximately 150 subjects will be treated and evaluated for safety and preliminary antitumor activity after every two cycles of therapy. Tumor types include non-small cell lung cancer (NSCLC), glioblastoma multiforme (GBM), hepatocellular carcinoma (HCC), gastrointestinal neuroendocrine tumor of non-pancreatic origin (NET), diffuse large B-cell lymphoma (DLBCL), multiple myeloma (MM), and hormone receptor positive breast cancer (HRPBC). Up to 20 subjects will be enrolled in each tumor type.
Subjects will be evaluated for efficacy every 2 cycles through cycle 6 and every 3 cycles thereafter. The primary efficacy variable is response. Tumor assessments, including imaging (CT, MRI and/or PET) of the chest and abdomen and other sites as appropriate, will be performed during Screening. Subjects with brain lesions will also have brain scans at Screening and during follow-up tumor assessments. […] Subjects will be evaluated for tumor response on completion of Cycle 2, 4, 6, and so on. […]
For Part B, efficacy variables to be analyzed include tumor response at the end of treatment, the proportion of subject alive and progression-free, and duration of response. […]

[4] = ER+/Her2− breast cancer subject

**Q.** For `CO[C@H]1CC[C@H](N2C(=O)CNc3ncc(-c4ccc(C(C)(C)O)nc4)nc32)CC1` [Compound 1, 7-(6-(2-hydroxypropan-2-yl)pyridin-3-yl)-1-((1r,4r)-4-methoxycyclohexyl)-3,4-dihydropyrazino-[2,3-b]pyrazin-2(1H)-one], which tumor growth inhibition ([1]; 5 mg/kg (BID), 10 mg/kg (BID), 25 mg/kg (QD and Q2D), Day 25) is on record?
**A.** Significant (p<0.001) tumor growth inhibition

**Q.** What about the Body weight loss ([1]; 10 mg/kg BID) of the same compound?
**A.** 16.9%

**Q.** And the tumor volume reduction ([1]; 10 mg/kg BID)?
**A.** Approximately 50%

**Q.** What about the Body weight loss ([1]; 25 mg/kg QD) of the same compound?
**A.** 14%

**Q.** What about the “minimum dose required to obtain >65% tumor volume reduction compared to vehicle” value ([1]; QD oral) of the same compound?
**A.** 25 mg/kg

**Q.** What about the “change in body weight” value ([1]; any other group) of the same compound?
**A.** No significant change

**Q.** And the “regression of target lesions” value ([2]; 1 breast cancer subject, FIG. 27)?
**A.** greater than 30%

**Q.** And the “duration of Partial Response, first restaging scan to last scan” value [2, 4]?
**A.** 220 days

**Q.** And the “duration of partial response, first restaging scan to last dose” value [2, 4]?
**A.** 271 days

**Q.** What about the “time to progression, first dose to last dose” value [2, 4] of the same compound?
**A.** 328 days

**Q.** And the “time to progression, first dose to last scan” value [2, 4]?
**A.** 277 days

**Q.** What about the “maximum reduction in target lesions” value ([2]; ER+/Her2− breast cancer subject, after 10 cycles) of the same compound?
**A.** 50%

**Q.** What about the “reduction in target lesions” value ([2]; ER+/Her2− breast cancer subject, first restaging after 2 cycles) of the same compound?
**A.** 30%

**Q.** And the “longest duration of SD” value ([2]; Part A)?
**A.** 24 weeks

**Q.** And the “subjects with target lesion responses in the stable range” value ([2]; Part A, FIG. 28)?
**A.** Fifteen subjects

**Q.** What about the “subjects with Stable Disease at first restaging” value ([2]; Part A, after 2 cycles) of the same compound?
**A.** Eight subjects

**Q.** What about the “subjects with PR (best overall response)” value ([2]; Part A, breast cancer, dose escalated from 30 to 45 mg, more than 11 cycles) of the same compound?
**A.** One subject

**Q.** What about the “clinical activity, defined as 6-month Progression-Free Survival” value [3] of the same compound?
**A.** No signs of clinical activity
